Here are results for one compound from patent EP1021178B1, “SELENOPHENE ANTI-TUMOR AGENTS” (Purdue Research Foundation, priority 1996, dated 1997).

Assay [1] in a line: in vitro activity of glycoside prodrug (preliminary). The following applies: preliminary results.
The nature of assay [2]: in vivo activity of glycoside prodrug (preliminary). The conditions noted are these: preliminary results.

For `OC[C@H]1O[C@@H](OCc2ccc(-c3ccc(-c4cccs4)s3)s2)[C@H](O)[C@@H](O)[C@@H]1O` [β-D-glucoside of 2-hydroxymethyl-∝-terthiophene], the in vitro activities result in assay [1] was “retains”. Moreover, in assay [2], the in vivo activities result is recorded as “retains”.
